This is an account of results in patent US5902789A, “Nasal administration of drugs” (Fisons Corporation, priority 1995, dated 1999).

For data set [1] the following is noted: cited from earlier work.
A short description of data set [2]: Example II irritation studies of nasal spray solutions without insulin (10 days). It counts as in vivo, human. As to conditions: longer than 5 days, polysorbate-80 added to nasal spray solution. On the procedure:
Chronic irritation studies, i.e., longer than 5 days, using polysorbate-80 according to the present invention have also been carried out.
Studies were carried out to determine the effect on nasal irritation of the addition of varying amounts of polysorbate-80 to nasal spray solutions containing N-9. […] In each study ten normal subjects were treated with one squirt (about 0.15 ml) of the nasal spray solution three times a day for ten consecutive days. After administration, the subjects were questioned about any symptoms and findings recorded. The nasal passages were examined on the fifth and tenth days of treatment by an ENT ([…], nose and throat) specialist and findings recorded.
The nasal spray solutions used in the study comprised 1% of a mixture of polysorbate-80:N-9, 1:9, wt:wt; 0.5% of a mixture of polysorbate-80:N-9, 1:9, wt:wt; 0.25% of a mixture of polysorbate-80:N-9, 1:9, wt:wt; 1% of a mixture of polysorbate-80:N-9, 1:3, wt:wt; 0.5% of a mixture of polysorbate-80:N-9, 1:3, wt:wt; 0.25% of a mixture of polysorbate-80:N-9, 1:3, wt:wt; 0.1% N-9 or a saline placebo. All of the nasal spray solutions produced minor changes in nasal mucosa and minor symptomatic complaints but the number encountered with 0.5% P-80:N-9, 1:9, and 0.5% P-80:N-9:1:3 (4 out of 10 subjects in each group) most closely paralleled the saline placebo (7 out of 20 subjects).

With laureth-9, the “promotion of insulin absorption” value in data set [1] (0.1% laureth-9, nasally) is given as “only moderately effective”. The “absorption of nasally administered insulin” value in data set [1] (humans) is recorded as “enhanced absorption”. Also, the “tolerability of nasal administration” value in data set [1] (laureth-9 at 0.1% by weight, nasally) is reported as “tolerated by all subjects tested”. For the same substance, in data set [1] (nasally administered insulin in humans, effects proportional to laureth-9 concentration), the “nasal irritation accompanying administration” value was “often accompanied by nasal irritation such as stinging, congestion and rhinorrhea”.

polysorbate-80: the chronic irritation result in data set [2] is “reduces chronic irritation”.
